Measured values reported in ChEMBL document CHEMBL1201862, “PubChem BioAssay data set” (2004).
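Dose response: 5 concentrations. Exposure: 48 h. Format: 96-well plates. Endpoint: linear interpolation; highest concentration if not reached. GI50: concentration for 50% inhibition of growth.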 Calls of active or inactive are those of the source. Rule as the data show it: active = GI50 up to about 1.1 µM and inactive = higher.

How the values were obtained:
Assay in all cases: DTP human tumour cell line panel, 48 h
LXFL 529 = test system: LXFL 529
SF-539 = test system: SF-539
A549 = test system: A549
DLD-1 = test system: DLD-1
NCI-H226 = test system: NCI-H226
Malme-3M = test system: Malme-3M
SNB-75 = test system: SNB-75
DMS-273 = test system: DMS-273
SN12C = test system: SN12C
HCT-15 = test system: HCT-15
SF-268 = test system: SF-268
ACHN = test system: ACHN
LOX IMVI = test system: LOX IMVI
SR = test system: SR
NCI-H23 = test system: NCI-H23
NCI-H522 = test system: NCI-H522
SF-295 = test system: SF-295
MDA-N = test system: MDA-N
BT-549 = test system: BT-549
HOP-62 = test system: HOP-62
HT-29 = test system: HT-29
NCI/ADR-RES = test system: NCI/ADR-RES
OVCAR-4 = test system: OVCAR-4
U-251 = test system: U-251
CAKI-1 = test system: CAKI-1
RPMI-8226 = test system: RPMI-8226
M14 = test system: M14
HCT-116 = test system: HCT-116
OVCAR-8 = test system: OVCAR-8
UO-31 = test system: UO-31
MDA-MB-231 = test system: MDA-MB-231
A498 = test system: A498
DU-145 = test system: DU-145
786-0 = test system: 786-0
RXF 393 = test system: RXF 393
HOP-92 = test system: HOP-92
HL-60 = test system: HL-60
SK-MEL-2 = test system: SK-MEL-2
SW-620 = test system: SW-620
OVCAR-5 = test system: OVCAR-5
HCC 2998 = test system: HCC 2998
K562 = test system: K562
Hs-578T = test system: Hs-578T
TK-10 = test system: TK-10
EKVX = test system: EKVX
UACC-62 = test system: UACC-62
UACC-257 = test system: UACC-257
KM12 = test system: KM12
NCI-H460 = test system: NCI-H460
COLO 205 = test system: COLO 205
PC-3 = test system: PC-3
SNB-19 = test system: SNB-19
IGROV-1 = test system: IGROV-1
MOLT-4 = test system: MOLT-4
CCRF-CEM = test system: CCRF-CEM
MDA-MB-435 = test system: MDA-MB-435
SK-MEL-5 = test system: SK-MEL-5
SK-OV-3 = test system: SK-OV-3
T47D = test system: T47D
SK-MEL-28 = test system: SK-MEL-28
OVCAR-3 = test system: OVCAR-3
MCF7 = test system: MCF7

With c1ccncc1 the GI50 (LXFL 529) was > 100 µM (inactive), the GI50 (SF-539) was > 100 µM (inactive) and the GI50 (A549) was > 100 µM (inactive). For the same molecule, the GI50 (DLD-1) was > 100 µM (inactive), the GI50 (NCI-H226) was > 100 µM (inactive) and the GI50 (Malme-3M) was > 100 µM (inactive). For the same molecule, the GI50 (SNB-75) was 85.5 µM (inactive), the GI50 (DMS-273) was > 100 µM (inactive) and the GI50 (SN12C) was > 100 µM (inactive). The GI50 (HCT-15) was greater than 100 µM, the GI50 (SF-268) was > 100 µM (inactive) and the GI50 (ACHN) was > 100 µM (inactive). The GI50 (LOX IMVI) was > 100 µM (inactive), the GI50 (SR) was > 100 µM (inactive) and the GI50 (NCI-H23) was > 100 µM (inactive).

In the case of O=C(Nc1ccccc1C(=O)NCCCO)/C(=C/c1ccccc1O)NC(=O)c1ccccc1, the GI50 (NCI-H522) is reported as 25.2 µM (inactive), the GI50 (SF-295) is reported as 34.4 µM (inactive) and the GI50 (MDA-N) is reported as > 43.5 µM (inactive). The GI50 (BT-549) was 19.8 µM (inactive), the GI50 (HOP-62) was 20.5 µM (inactive) and the GI50 (HT-29) was > 100 µM (inactive). The GI50 (NCI/ADR-RES) was 17 µM (inactive), the GI50 (OVCAR-4) was 56.8 µM (inactive) and the GI50 (U-251) was 30 µM (inactive). The GI50 (CAKI-1) was > 100 µM (inactive), the GI50 (RPMI-8226) was > 100 µM (inactive) and the GI50 (M14) was 55.6 µM (inactive). For the same molecule, the GI50 (HCT-116) was 37.3 µM (inactive), the GI50 (OVCAR-8) was > 42.7 µM (inactive) and the GI50 (SF-539) was 30.8 µM (inactive). The GI50 (UO-31) was 20.7 µM (inactive), the GI50 (MDA-MB-231) was 26.7 µM (inactive) and the GI50 (A549) was > 100 µM (inactive). For the same molecule, the GI50 (A498) was > 91.2 µM (inactive), the GI50 (NCI-H226) was 39.3 µM (inactive) and the GI50 (DU-145) was > 81.8 µM (inactive). The GI50 (Malme-3M) was 95.3 µM (inactive), the GI50 (786-0) was 34 µM (inactive) and the GI50 (RXF 393) was 28.1 µM (inactive). The GI50 (HOP-92) was 53.3 µM (inactive), the GI50 (HL-60) was > 100 µM (inactive) and the GI50 (SK-MEL-2) was 44.3 µM (inactive). For the same molecule, the GI50 (SW-620) was > 84.3 µM (inactive), the GI50 (SNB-75) was 20.2 µM (inactive) and the GI50 (OVCAR-5) was > 100 µM (inactive). For the same molecule, the GI50 (SN12C) was > 80.9 µM (inactive), the GI50 (HCT-15) was greater than 78.2 µM and the GI50 (HCC 2998) was > 100 µM (inactive). For the same molecule, the GI50 (K562) was > 100 µM (inactive), the GI50 (Hs-578T) was 26.2 µM (inactive) and the GI50 (TK-10) was 97.9 µM (inactive). For the same molecule, the GI50 (EKVX) was 65.6 µM (inactive), the GI50 (UACC-62) was 19.5 µM (inactive) and the GI50 (SF-268) was 35.6 µM (inactive). For the same molecule, the GI50 (UACC-257) was > 100 µM (inactive), the GI50 (KM12) was 18.4 µM (inactive) and the GI50 (NCI-H460) was > 72.1 µM (inactive). The GI50 (COLO 205) was > 100 µM (inactive), the GI50 (PC-3) was 33.1 µM (inactive) and the GI50 (SNB-19) was 16.9 µM (inactive). The GI50 (IGROV-1) was 36.6 µM (inactive), the GI50 (MOLT-4) was > 100 µM (inactive) and the GI50 (CCRF-CEM) was > 100 µM (inactive). For the same molecule, the GI50 (ACHN) was 30.8 µM (inactive), the GI50 (LOX IMVI) was 21.5 µM (inactive) and the GI50 (MDA-MB-435) was > 50.5 µM (inactive). For the same molecule, the GI50 (SK-MEL-5) was > 100 µM (inactive), the GI50 (SK-OV-3) was 51.5 µM (inactive) and the GI50 (SR) was > 100 µM (inactive). For the same molecule, the GI50 (T47D) was 16.3 µM (inactive), the GI50 (SK-MEL-28) was > 100 µM (inactive) and the GI50 (OVCAR-3) was 48.8 µM (inactive). The GI50 (MCF7) was 5.36 µM (inactive) and the GI50 (NCI-H23) was 36.1 µM (inactive).
